Source: US4988687A, “Cephalosporin derivatives, and antibacterial agents” (priority 1986, dated 1991)
Values after ≈ are worked out from the molar mass of the structure shown. Read-outs that look alike come from different tables or passages of the source.

What was measured:
A. calcoaceticus No. 4 = test: agar plate dilution method, MIC against A. calcoaceticus No. 4; assay type: cell-based; details: Acinetobacter calcoaceticus, read-out: Minimum Inhibitory Concentration (MIC)
Method: (§1) The in vitro antibacterial activities of the compounds of the present invention against various microorganisms, were measured by the following agar plate dilution method. One platinum loopfull of each test microorganism incubated overnight in Mueller Hinton broth, was inoculated to Mueller Hinton agar (inoculum size: 10^6 CFU/ml) Such culture media containing various antibiotics in various concentrations were prepared After incubation at 37° C. for 16 hours, the minimum inhibitory concentrations (MIC: μg/ml) were measured. As comparative compounds, cefotaxime, oeftazidime and the compounds disclosed in Example 2 of Japanese Unexamined Patent Publication No. 215690/1985 e.g. sodium 7-[2-(2-aminothiazol-4-yl)-2-ethoxyiminoacetamido]-3-(1-carboxylatemethylpyridinio-4-yl)thiomethyl-3-cephem-4-carboxylate (hereinafter referred to simply as "Reference Example A") were employed.

E. coli GN5482 = test: agar plate dilution method, MIC against E. coli GN5482; assay type: cell-based; details: Escherichia coli; E. coli GN5482 (lactamase-producing strain); 10^6 CFU/ml, 37° C., 16 hours; read-out: Minimum Inhibitory Concentration (MIC)
Method: as §1

S. marcescens No. 16-2 = test: agar plate dilution method, MIC against S. marcescens No. 16-2; assay type: cell-based; details: Serratia marcescens, NO.162, 16 h, read-out: Minimum Inhibitory Concentration (MIC)
Method: as §1

M. luteus ATCC9341 = test: agar plate dilution method, MIC against M. luteus ATCC9341; assay type: cell-based; details: Micrococcus luteus, read-out: Minimum Inhibitory Concentration (MIC)
Method: as §1

Ps. cepacia 23 = test: agar plate dilution method, MIC against Ps. cepacia 23; assay type: cell-based, Pseudomonas cepacia; details: read-out: Minimum Inhibitory Concentration (MIC)
Method: as §1

P. vulgaris No. 33 = test: agar plate dilution method, MIC against P. vulgaris No. 33; assay type: cell-based; details: Proteus vulgaris; P. vulgaris No. 33 (lactamase-producing strain); 10^6 CFU/ml, 37° C., 16 hours; read-out: Minimum Inhibitory Concentration (MIC)
Method: as §1

E. coli NIHJ JC2 = test: agar plate dilution method, MIC against E. coli NIHJ JC2; assay type: cell-based; details: Escherichia coli, read-out: Minimum Inhibitory Concentration (MIC)
Method: as §1

S. marcescens IAM 1184 = test: agar plate dilution method, MIC against S. marcescens IAM 1184; assay type: cell-based; details: Serratia marcescens, IAM1184; S. marcescens IAM 1184; 10^6 CFU/ml, 37° C., 16 hours; read-out: Minimum Inhibitory Concentration (MIC)
Method: as §1

E. cloacae Nek 39 = test: agar plate dilution method, MIC against E. cloacae Nek 39; assay type: cell-based; details: Enterobacter cloacae, NEK39; E. cloacae Nek 39 (lactamase-producing strain); 10^6 CFU/ml, 37° C., 16 hours; read-out: Minimum Inhibitory Concentration (MIC)
Method: as §1

Ps. maltophilia GN 12873 = test: agar plate dilution method, MIC against Ps. maltophilia GN 12873; assay type: cell-based, Pseudomonas maltophilia; details: Stenotrophomonas maltophilia, GN12873; Ps. maltophilia GN 12873 (lactamase-producing strain); 10^6 CFU/ml, 37° C., 16 hours; read-out: Minimum Inhibitory Concentration (MIC)
Method: as §1

Ps. aeruginosa IFO3445 = test: agar plate dilution method, MIC against Ps. aeruginosa IFO3445; assay type: cell-based; details: Pseudomonas aeruginosa, IFO3445, 16 h, read-out: Minimum Inhibitory Concentration (MIC)
Method: as §1

K. pneumoniae PCI-602 = test: agar plate dilution method, MIC against K. pneumoniae PCI-602; assay type: cell-based; details: Klebsiella pneumoniae, PCI602, 16 h, read-out: Minimum Inhibitory Concentration (MIC)
Method: as §1

C. freundii GN346 = test: agar plate dilution method, MIC against C. freundii GN346; assay type: cell-based; details: Citrobacter freundii; C. freundii GN346 (lactamase-producing strain); 10^6 CFU/ml, 37° C., 16 hours; read-out: Minimum Inhibitory Concentration (MIC)
Method: as §1

E. coli CSH2 (RK1) = test: agar plate dilution method, MIC against E. coli CSH2 (RK1); assay type: cell-based; details: Escherichia coli, 16 h, read-out: Minimum Inhibitory Concentration (MIC)
Method: as §1

Ps. aeruginosa AK 109 = test: agar plate dilution method, MIC against Ps. aeruginosa AK 109; assay type: cell-based; details: Pseudomonas aeruginosa, AK109, 16 h, read-out: Minimum Inhibitory Concentration (MIC)
Method: as §1

K. oxytoca GN10650 = test: agar plate dilution method, MIC against K. oxytoca GN10650; assay type: cell-based; details: Klebsiella oxytoca, read-out: Minimum Inhibitory Concentration (MIC)
Method: as §1

E. coli CSH(RE45) = test: agar plate dilution method, MIC against E. coli CSH(RE45); assay type: cell-based; details: Escherichia coli, 16 h, read-out: Minimum Inhibitory Concentration (MIC)
Method: as §1

P. vulgaris HX-19 = test: agar plate dilution method, MIC against P. vulgaris HX-19; assay type: cell-based; details: Proteus vulgaris, read-out: Minimum Inhibitory Concentration (MIC)
Method: as §1

K. pneumoniae No. 42 = test: agar plate dilution method, MIC against K. pneumoniae No. 42; assay type: cell-based; details: Klebsiella pneumoniae; K. pneumoniae No. 42 (lactamase-producing strain); 10^6 CFU/ml, 37° C., 16 hours; read-out: Minimum Inhibitory Concentration (MIC)
Method: as §1

C. freundii GN346/16 = test: agar plate dilution method, MIC against C. freundii GN346/16; assay type: cell-based; details: Citrobacter freundii, read-out: Minimum Inhibitory Concentration (MIC)
Method: as §1

E. cloacae 963 = test: agar plate dilution method, MIC against E. cloacae 963; assay type: cell-based; details: read-out: Minimum Inhibitory Concentration (MIC)
Method: as §1

S. aureus 209P NIHJ-JC1 = test: agar plate dilution method, MIC against S. aureus 209P NIHJ-JC1; assay type: cell-based; details: Staphylococcus aureus, read-out: Minimum Inhibitory Concentration (MIC)
Method: as §1

S. aureus JS1 = test: agar plate dilution method, MIC against S. aureus JS1; assay type: cell-based; details: Staphylococcus aureus, read-out: Minimum Inhibitory Concentration (MIC)
Method: as §1

S. epidermidis IAM12012 = test: agar plate dilution method, MIC against S. epidermidis IAM12012; assay type: cell-based; details: Staphylococcus epidermidis, read-out: Minimum Inhibitory Concentration (MIC)
Method: as §1

S. aureus BB5703 = test: agar plate dilution method, MIC against S. aureus BB5703; assay type: cell-based; details: Staphylococcus aureus, read-out: Minimum Inhibitory Concentration (MIC)
Method: as §1

M. morganii GN5407 = test: agar plate dilution method, MIC against M. morganii GN5407; assay type: cell-based; details: Morganella morganii; M. morganii GN5407 (lactamase-producing strain); 10^6 CFU/ml, 37° C., 16 hours; read-out: Minimum Inhibitory Concentration (MIC)
Method: as §1

Ps. aeruginosa AKR17 = test: agar plate dilution method, MIC against Ps. aeruginosa AKR17; assay type: cell-based; details: Pseudomonas aeruginosa; Ps. aeruginosa AKR17; 10^6 CFU/ml, 37° C., 16 hours; read-out: Minimum Inhibitory Concentration (MIC)
Method: as §1

SMILES	MIC (E. coli GN5482)	MIC (S. marcescens No. 16-2)	MIC (P. vulgaris No. 33)	MIC (S. marcescens IAM 1184)	MIC (E. cloacae Nek 39)	MIC (Ps. maltophilia GN 12873)	MIC (Ps. aeruginosa IFO3445)	MIC (K. pneumoniae PCI-602)	MIC (C. freundii GN346)	MIC (E. coli CSH2 (RK1))	MIC (Ps. aeruginosa AK 109)	MIC (E. coli CSH(RE45))	MIC (K. pneumoniae No. 42)	MIC (M. morganii GN5407)	MIC (Ps. aeruginosa AKR17)	other results
Nc1nc(/C(=N/OC(C(=O)O)c2ccccc2)C(=O)NC2C(=O)N3C(C(=O)[O-])=C(CSc4cc[n+](CC(=O)O)cc4)CSC23)cs1 (stereo not drawn) [Example 3, disodium 7-[2-(2-aminothiazol-4-yl)-2-(α-carboxylatebenzyloxyimino)acetamide]-3-(1-caboxylatemethylpyridinio-4-yl)thiomethyl-3-cephem-4-carboxylate (syn-isomer)]	0.78 µg/mL	6.25 µg/mL	0.1 µg/mL	0.39 µg/mL	6.25 µg/mL	> 100 µg/mL	3.12 µg/mL	< 0.006 µg/mL	100 µg/mL	0.78 µg/mL	6.25 µg/mL	0.78 µg/mL	1.56 µg/mL	0.78 µg/mL	> 100 µg/mL	MIC (A. calcoaceticus No. 4; A. calcoaceticus No. 4, 10^6 CFU/ml, 37° C., 16 hours): 50 µg/mL; MIC (M. luteus ATCC9341; ATCC9341, 16 h): 3.12 µg/mL; MIC (Ps. cepacia 23; Burkholderia cepacia, 23, 16 h): 3.12 µg/mL; MIC (E. coli NIHJ JC2; NIHJJC2, 16 h): 1.56 µg/mL; MIC (K. oxytoca GN10650; K. oxytoca GN10650 (lactamase-producing strain), 10^6 CFU/ml, 37° C., 16 hours): 0.78 µg/mL; MIC (P. vulgaris HX-19; HX19, P. vulgaris HX-19, 10^6 CFU/ml, 37° C., 16 hours): 0.0125 µg/mL; MIC (C. freundii GN346/16; GN346, 16 h): 1.56 µg/mL; MIC (E. cloacae 963; Enterobacter cloacae, 963, 16 h): 1.56 µg/mL; MIC (S. aureus 209P NIHJ-JC1; 16 h): 12.5 µg/mL; MIC (S. aureus JS1; S. aureus JS1 (methicilline resistant; lactamase-producing strain), 10^6 CFU/ml, 37° C., 16 hours): 50 µg/mL; MIC (S. epidermidis IAM12012; IAM12012, 16 h): 6.25 µg/mL; MIC (S. aureus BB5703; S. aureus BB5703, 10^6 CFU/ml, 37° C., 16 hours): 25 µg/mL
Nc1nc(C(=NOCc2ccc(O)c(O)c2)C(=O)NC2C(=O)N3C(C(=O)[O-])=C(CSc4cc[n+](CC(=O)O)cc4)CSC23)cs1 (stereo not drawn) [Example 4, 7-[2-(2-aminothiazol-4-yl)-2-(3,4-dihydroxybenzyloxyimino)acetamido]-3-(1-carboxymethylpyridinio-4-yl)thiomethyl-3-cephem-4-carboxylate (syn-isomer)]	0.39 µg/mL (≈ 0.58 µM)	6.25 µg/mL (≈ 9.29 µM)	0.2 µg/mL (≈ 0.297 µM)	0.1 µg/mL (≈ 0.149 µM)	0.78 µg/mL (≈ 1.16 µM)	> 100 µg/mL	3.12 µg/mL (≈ 4.64 µM)	< 0.006 µg/mL	6.25 µg/mL (≈ 9.29 µM)	0.05 µg/mL (≈ 0.0743 µM)	1.56 µg/mL (≈ 2.32 µM)	0.025 µg/mL (≈ 0.0372 µM)	0.2 µg/mL (≈ 0.297 µM)	0.1 µg/mL (≈ 0.149 µM)	> 100 µg/mL	MIC (A. calcoaceticus No. 4; NO.4, 16 h): 1.56 µg/mL (≈ 2.32 µM); MIC (M. luteus ATCC9341; M. luteus ATCC9341, 10^6 CFU/ml, 37° C., 16 hours): 0.39 µg/mL (≈ 0.58 µM); MIC (Ps. cepacia 23; Burkholderia cepacia, Ps. cepacia 23, 10^6 CFU/ml, 37° C., 16 hours): 0.39 µg/mL (≈ 0.58 µM); MIC (E. coli NIHJ JC2; NIHJJC2, E. coli NIHJ JC2, 10^6 CFU/ml, 37° C., 16 hours): 0.05 µg/mL (≈ 0.0743 µM); MIC (K. oxytoca GN10650; GN10650, 16 h): 0.78 µg/mL (≈ 1.16 µM); MIC (P. vulgaris HX-19; HX19, 16 h): 0.025 µg/mL (≈ 0.0372 µM); MIC (C. freundii GN346/16; C. freundii GN346/16, 10^6 CFU/ml, 37° C., 16 hours): 0.2 µg/mL (≈ 0.297 µM); MIC (E. cloacae 963; Enterobacter cloacae, E. cloacae 963, 10^6 CFU/ml, 37° C., 16 hours): 0.1 µg/mL (≈ 0.149 µM); MIC (S. aureus 209P NIHJ-JC1; S. aureus 209P NIHJ-JC1, 10^6 CFU/ml, Mueller Hinton agar, 37° C., 16 hours): 0.39 µg/mL (≈ 0.58 µM); MIC (S. aureus JS1; JS1, 16 h): 6.25 µg/mL (≈ 9.29 µM); MIC (S. epidermidis IAM12012; S. epidermidis IAM12012, 10^6 CFU/ml, 37° C., 16 hours): 0.78 µg/mL (≈ 1.16 µM); MIC (S. aureus BB5703; BB5703, 16 h): 3.12 µg/mL (≈ 4.64 µM)
